Experiment [1] addresses T1, Homeodomain-interacting protein kinase 4 (Homo sapiens) (UniProt Q8NE63).
T1 sequence (whole entry): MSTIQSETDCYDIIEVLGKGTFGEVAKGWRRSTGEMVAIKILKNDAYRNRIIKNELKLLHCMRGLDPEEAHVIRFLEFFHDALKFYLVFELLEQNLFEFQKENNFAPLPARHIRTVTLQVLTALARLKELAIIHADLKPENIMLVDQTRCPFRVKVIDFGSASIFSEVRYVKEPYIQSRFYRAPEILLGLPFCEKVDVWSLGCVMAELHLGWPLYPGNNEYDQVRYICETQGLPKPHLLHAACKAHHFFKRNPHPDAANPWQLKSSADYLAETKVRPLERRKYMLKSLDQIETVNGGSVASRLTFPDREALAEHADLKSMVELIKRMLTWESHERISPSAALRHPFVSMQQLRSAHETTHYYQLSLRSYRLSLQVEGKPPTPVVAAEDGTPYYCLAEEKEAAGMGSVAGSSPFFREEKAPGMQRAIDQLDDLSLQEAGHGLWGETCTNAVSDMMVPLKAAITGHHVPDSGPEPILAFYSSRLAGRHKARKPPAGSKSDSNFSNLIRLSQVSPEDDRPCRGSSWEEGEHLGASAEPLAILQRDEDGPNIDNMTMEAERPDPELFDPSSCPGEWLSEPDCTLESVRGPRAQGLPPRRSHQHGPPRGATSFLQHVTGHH
Briefly: Selectivity interaction (Ambit KINOMEscan and KiNATiv profiling in Jurkat cells) EUB0000090b HIPK4. Type of experiment: cell-based. Conditions: at 1 µM.

For experiment [2], the target named is Kappa-type opioid receptor (Homo sapiens, UniProt P41145). Briefly: Selectivity interaction (GPCR panel (PDSP screen)) EUB0001079a OPRK1. Conditions: at 10 µM.
The target in a further experiment is SRSF protein kinase 1 (Homo sapiens, UniProt Q96SB4). Briefly: Selectivity interaction (KinomeScan (DiscoverX)) EUB0000092b SRPK1. As to conditions: at 10 µM.
The target of experiment [3] is Activin receptor type-2B (Homo sapiens) (UniProt Q13705). The experiment in a line: Selectivity interaction (KinomeScan (DiscoverX)) EUB0000655a ACVR2B. As to conditions: at 10 µM.
In experiment [4] the target is T2, Serine/threonine-protein kinase 3 (Homo sapiens) (UniProt Q13188).
T2 sequence (whole entry): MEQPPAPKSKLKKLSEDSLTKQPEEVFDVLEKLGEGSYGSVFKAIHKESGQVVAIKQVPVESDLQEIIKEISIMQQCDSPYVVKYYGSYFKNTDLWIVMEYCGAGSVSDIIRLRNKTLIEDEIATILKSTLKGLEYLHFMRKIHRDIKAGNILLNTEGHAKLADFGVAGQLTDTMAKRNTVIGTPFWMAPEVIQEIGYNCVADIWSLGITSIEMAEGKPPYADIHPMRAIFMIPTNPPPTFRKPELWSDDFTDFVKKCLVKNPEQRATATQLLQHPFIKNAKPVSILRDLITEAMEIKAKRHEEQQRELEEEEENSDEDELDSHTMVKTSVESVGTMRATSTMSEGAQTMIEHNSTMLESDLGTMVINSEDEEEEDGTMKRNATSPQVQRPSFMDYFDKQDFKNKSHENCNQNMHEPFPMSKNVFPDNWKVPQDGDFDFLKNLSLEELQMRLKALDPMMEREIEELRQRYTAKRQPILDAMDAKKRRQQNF
Briefly: Selectivity interaction (KinomeScan (DiscoverX)) EUB0000655a STK3. As to conditions: at 10 µM.

Experiment [5] has as its target CDK6/cyclin D1 (Homo sapiens) (UniProt P24385+Q00534). Briefly: (§1) Selectivity interaction (Rxn Biology Kinase assay) EUB0001632a CDK6. Type of experiment: protein-complex assay. Conditions: at 10 µM.
For experiment [6], the target named is CDK6/cyclin D3 (Homo sapiens) (UniProt P30281+Q00534). Described as §1. It is filed as protein-complex assay. Conditions: at 10 µM.
The target of experiment [7] is Serine/threonine-protein kinase Nek7 (Homo sapiens) (UniProt Q8TDX7). The experiment in a line: Selectivity interaction (KinomeScan (DiscoverX)) EUB0000607a NEK7. Conditions: at 10 µM.
In experiment [8] the target is Tyrosine-protein kinase CSK (Homo sapiens) (UniProt P41240). The experiment in a line: Selectivity interaction (SelectScreen profiling (Invitrogen)) EUB0000607a CSK. Conditions: at 2 µM.
Experiment [9] concerns the target eIF-2-alpha kinase GCN2 (Homo sapiens) (UniProt Q9P2K8). The experiment in a line: Selectivity interaction (ActivX KiNativ screen (kinase selectivity in THP-1 cell lysates)) EUB0000639a EIF2AK4. Type of experiment: subcellular. As to conditions: lysate, at 0.2 µM.
For experiment [10], the target named is Ribosomal protein S6 kinase alpha-1 (Homo sapiens, UniProt Q15418). The experiment in a line: Selectivity interaction (Kinase panel (Invitrogen)) EUB0000639a RPS6KA1. As to conditions: at 200 nM.
For experiment [11], the target named is T3, Mitogen-activated protein kinase 14 (Homo sapiens, UniProt Q16539). The experiment in a line: (§2) Selectivity interaction (ActivX KiNativ screen (kinase selectivity in THP-1 cell lysates)) EUB0000639a MAPK14. Type of experiment: subcellular. As to conditions: lysate, at 0.2 µM.
Experiment [12] concerns the target T3, Mitogen-activated protein kinase 14. The experiment is described as §2. Type of experiment: subcellular. Conditions: lysate, at 0.04 µM.
The target of experiment [13] is Ribosomal protein S6 kinase alpha-5 (Homo sapiens) (UniProt O75582). The experiment in a line: Selectivity interaction (ActivX KiNativ screen (ex vivo kinase selectivity in human PBMCs)) EUB0001619a RPS6KA5. Type of experiment: cell-based. Conditions: PBMC, at 1 µM.
Experiment [14] addresses Protein-tyrosine kinase 2-beta (Homo sapiens) (UniProt Q14289). Briefly: Selectivity interaction (KinomeScan (DiscoverX)) EUB0000618a PTK2B. As to conditions: at 10 µM.

Among the data in ChEMBL document CHEMBL5465560, “Selectivity Literature for EUbOPEN Chemogenomic Library” (2024) are % of control and % of inhibition values, retold here.

SMILES strings stand for the structures.

T3 sequence (Q16539 whole entry): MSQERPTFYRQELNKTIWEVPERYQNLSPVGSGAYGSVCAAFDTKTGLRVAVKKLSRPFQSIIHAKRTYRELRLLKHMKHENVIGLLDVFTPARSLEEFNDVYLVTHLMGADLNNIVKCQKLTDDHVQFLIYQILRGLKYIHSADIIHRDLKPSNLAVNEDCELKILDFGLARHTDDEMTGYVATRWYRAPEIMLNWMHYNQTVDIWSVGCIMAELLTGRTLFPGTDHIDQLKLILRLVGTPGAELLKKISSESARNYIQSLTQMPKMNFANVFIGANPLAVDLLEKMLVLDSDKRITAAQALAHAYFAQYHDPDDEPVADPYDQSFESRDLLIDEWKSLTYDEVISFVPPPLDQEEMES
Chain of Ribosomal protein S6 kinase alpha-5 (Homo sapiens) (O75582 whole entry, looked up): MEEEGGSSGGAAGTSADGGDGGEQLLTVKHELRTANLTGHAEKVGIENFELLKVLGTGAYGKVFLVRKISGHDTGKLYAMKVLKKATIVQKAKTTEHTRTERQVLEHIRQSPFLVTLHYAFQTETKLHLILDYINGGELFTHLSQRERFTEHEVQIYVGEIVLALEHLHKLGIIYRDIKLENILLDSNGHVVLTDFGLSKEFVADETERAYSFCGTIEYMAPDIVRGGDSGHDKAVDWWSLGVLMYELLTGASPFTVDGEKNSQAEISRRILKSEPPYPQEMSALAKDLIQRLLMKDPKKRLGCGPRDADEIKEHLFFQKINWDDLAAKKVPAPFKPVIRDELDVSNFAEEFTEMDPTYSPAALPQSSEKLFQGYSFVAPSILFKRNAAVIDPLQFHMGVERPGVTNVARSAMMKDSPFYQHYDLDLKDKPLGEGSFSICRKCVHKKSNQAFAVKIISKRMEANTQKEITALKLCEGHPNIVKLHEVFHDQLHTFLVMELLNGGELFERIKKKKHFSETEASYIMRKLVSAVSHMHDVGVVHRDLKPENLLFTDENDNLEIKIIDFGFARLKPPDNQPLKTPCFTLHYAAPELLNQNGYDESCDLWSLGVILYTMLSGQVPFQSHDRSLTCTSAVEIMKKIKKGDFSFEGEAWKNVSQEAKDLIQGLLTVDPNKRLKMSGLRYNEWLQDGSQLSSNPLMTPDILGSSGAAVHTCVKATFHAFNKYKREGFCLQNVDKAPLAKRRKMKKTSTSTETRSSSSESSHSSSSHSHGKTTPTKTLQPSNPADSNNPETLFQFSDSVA
Chain of Kappa-type opioid receptor (P41145 whole entry): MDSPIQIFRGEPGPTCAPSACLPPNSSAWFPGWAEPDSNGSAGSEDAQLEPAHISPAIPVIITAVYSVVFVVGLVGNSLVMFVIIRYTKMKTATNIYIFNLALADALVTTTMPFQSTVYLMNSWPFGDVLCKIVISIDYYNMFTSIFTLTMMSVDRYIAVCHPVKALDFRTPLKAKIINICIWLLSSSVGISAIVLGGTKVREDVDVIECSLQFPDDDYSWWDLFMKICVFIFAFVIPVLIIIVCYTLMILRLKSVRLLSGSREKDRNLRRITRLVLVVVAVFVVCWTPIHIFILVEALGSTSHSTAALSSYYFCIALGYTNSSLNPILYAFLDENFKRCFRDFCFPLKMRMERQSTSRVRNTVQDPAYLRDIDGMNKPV
Chain of Protein-tyrosine kinase 2-beta (Homo sapiens) (Q14289 whole entry, looked up): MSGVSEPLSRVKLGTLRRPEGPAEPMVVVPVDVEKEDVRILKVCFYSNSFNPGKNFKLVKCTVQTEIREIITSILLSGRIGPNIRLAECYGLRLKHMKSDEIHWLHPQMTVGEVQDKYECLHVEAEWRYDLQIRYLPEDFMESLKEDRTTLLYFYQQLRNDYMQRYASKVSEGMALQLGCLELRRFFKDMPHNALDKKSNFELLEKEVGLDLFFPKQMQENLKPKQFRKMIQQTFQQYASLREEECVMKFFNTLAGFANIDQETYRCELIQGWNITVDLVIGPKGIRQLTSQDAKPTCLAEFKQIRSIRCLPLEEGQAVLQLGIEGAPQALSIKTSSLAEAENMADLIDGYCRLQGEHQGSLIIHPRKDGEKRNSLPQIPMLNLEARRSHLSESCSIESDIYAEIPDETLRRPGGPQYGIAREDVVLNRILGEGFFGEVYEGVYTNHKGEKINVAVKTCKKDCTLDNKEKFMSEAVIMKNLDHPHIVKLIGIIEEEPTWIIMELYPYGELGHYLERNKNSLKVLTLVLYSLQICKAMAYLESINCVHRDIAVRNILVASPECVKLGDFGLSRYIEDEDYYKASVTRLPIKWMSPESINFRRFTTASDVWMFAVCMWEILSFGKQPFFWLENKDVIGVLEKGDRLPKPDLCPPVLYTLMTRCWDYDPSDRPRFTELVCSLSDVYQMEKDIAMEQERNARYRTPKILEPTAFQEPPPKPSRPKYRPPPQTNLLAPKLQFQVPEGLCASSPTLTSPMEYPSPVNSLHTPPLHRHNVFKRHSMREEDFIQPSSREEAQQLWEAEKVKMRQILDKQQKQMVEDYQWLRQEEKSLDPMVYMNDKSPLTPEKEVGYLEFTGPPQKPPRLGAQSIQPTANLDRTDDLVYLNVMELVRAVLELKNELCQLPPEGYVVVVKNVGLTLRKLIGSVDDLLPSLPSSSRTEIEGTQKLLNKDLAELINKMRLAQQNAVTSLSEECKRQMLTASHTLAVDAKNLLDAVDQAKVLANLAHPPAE
Chain of Tyrosine-protein kinase CSK (Homo sapiens) (P41240 2-450 limits assumed): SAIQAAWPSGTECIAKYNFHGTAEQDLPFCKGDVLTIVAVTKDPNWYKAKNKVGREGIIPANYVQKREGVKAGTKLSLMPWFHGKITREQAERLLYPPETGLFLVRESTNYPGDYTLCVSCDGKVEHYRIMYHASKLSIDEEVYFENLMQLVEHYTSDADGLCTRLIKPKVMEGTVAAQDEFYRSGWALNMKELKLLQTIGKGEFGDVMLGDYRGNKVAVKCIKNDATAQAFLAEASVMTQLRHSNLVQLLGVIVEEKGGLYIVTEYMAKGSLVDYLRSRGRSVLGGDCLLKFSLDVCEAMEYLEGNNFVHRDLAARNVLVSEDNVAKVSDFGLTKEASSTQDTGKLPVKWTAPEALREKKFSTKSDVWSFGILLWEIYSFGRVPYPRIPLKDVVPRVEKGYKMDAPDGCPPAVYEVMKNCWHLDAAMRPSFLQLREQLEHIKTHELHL
Chain of Ribosomal protein S6 kinase alpha-1 (Q15418 whole entry): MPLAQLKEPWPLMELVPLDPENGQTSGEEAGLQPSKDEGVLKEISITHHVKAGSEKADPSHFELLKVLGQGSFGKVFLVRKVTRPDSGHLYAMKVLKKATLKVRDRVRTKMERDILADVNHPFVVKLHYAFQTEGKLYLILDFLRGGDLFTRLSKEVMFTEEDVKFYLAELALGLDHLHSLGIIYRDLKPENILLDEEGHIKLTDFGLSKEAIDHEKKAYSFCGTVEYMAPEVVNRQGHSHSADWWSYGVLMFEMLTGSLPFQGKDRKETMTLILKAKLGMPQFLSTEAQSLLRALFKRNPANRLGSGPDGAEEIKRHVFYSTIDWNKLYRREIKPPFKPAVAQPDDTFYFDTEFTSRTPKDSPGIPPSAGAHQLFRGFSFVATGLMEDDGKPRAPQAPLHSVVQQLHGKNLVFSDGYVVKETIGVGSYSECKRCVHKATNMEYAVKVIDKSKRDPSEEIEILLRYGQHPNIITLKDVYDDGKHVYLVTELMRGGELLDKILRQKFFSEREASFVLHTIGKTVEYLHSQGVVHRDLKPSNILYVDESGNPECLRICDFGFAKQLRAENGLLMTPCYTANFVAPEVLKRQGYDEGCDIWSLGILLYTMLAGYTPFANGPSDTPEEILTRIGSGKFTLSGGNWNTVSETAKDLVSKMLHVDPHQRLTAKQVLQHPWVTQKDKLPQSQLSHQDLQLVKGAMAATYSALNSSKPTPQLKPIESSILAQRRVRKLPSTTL
Chain of Serine/threonine-protein kinase Nek7 (Homo sapiens) (Q8TDX7 whole entry, looked up): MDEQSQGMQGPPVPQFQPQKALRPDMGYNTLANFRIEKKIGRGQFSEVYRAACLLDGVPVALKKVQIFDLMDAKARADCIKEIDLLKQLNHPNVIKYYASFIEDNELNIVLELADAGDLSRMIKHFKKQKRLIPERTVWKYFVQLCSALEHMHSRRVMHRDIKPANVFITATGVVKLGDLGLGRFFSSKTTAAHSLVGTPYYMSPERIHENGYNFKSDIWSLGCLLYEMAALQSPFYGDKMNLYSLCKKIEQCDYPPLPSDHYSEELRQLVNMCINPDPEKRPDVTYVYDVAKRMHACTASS
Chain of SRSF protein kinase 1 (Q96SB4 whole entry): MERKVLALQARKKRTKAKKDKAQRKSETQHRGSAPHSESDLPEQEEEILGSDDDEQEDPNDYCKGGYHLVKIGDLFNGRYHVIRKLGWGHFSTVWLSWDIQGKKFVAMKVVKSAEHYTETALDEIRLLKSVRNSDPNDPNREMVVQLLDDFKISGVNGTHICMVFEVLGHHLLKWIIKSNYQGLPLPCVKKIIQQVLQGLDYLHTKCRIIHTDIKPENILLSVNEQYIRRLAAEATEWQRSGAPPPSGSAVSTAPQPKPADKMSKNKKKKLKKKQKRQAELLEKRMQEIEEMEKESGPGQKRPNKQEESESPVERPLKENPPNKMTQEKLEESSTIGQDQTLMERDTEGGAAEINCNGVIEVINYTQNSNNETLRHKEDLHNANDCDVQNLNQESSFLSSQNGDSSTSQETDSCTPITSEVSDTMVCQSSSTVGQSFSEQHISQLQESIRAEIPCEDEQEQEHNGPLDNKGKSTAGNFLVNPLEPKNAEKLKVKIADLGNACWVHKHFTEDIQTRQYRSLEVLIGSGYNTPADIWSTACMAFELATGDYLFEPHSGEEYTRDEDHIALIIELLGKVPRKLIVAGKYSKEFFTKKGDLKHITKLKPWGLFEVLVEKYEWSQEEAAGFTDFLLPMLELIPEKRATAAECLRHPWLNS

Consider `CN(C)C/C=C/C(=O)Nc1ccc(C(=O)N2CCCC(Nc3ncc(Cl)c(-c4c[nH]c5ccccc45)n3)C2)cc1` (stereo not given), for which, in experiment [1], the % of control was determined as 47%.

Take `Nc1cnc(N2CCc3cc(S(=O)(=O)Nc4c(F)cc(Cl)cc4F)cc(N4CCCC4=O)c32)nc1` [TP-020n]: the % of inhibition in experiment [2] was determined as 14.9%.

For `CCC(=O)N1CCN(c2ccc(-n3c(=O)ccc4cnc5ccc(-c6cnc7ccccc7c6)cc5c43)cc2C(F)(F)F)CC1`, at SRSF protein kinase 1, the % of control came to 100%.

With `CN(C)CCOc1ccc(-c2nc(-c3ccncc3)c(-c3ccc4c(c3)CC/C4=N\O)[nH]2)cc1`, the results for the % of control in experiment [3] and in [4] were 98% and 88%, respectively.

On to `Cn1cc(-n2cnc3c(NCc4nc5cc(Cl)c(Cl)cc5[nH]4)nc(N4CCOCC4)nc32)cn1`, for which the results for the % of inhibition in experiment [5] and in experiment [6] were 83.4% and 52.8%, respectively.

The compound `CNC(=O)Nc1ccc(-c2nc(N3CC4CCC(C3)O4)c3cnn(C4CCC5(CC4)OCCO5)c3n2)cc1` yielded a % of control in experiment [7] of 100%. Besides, in experiment [8], the % of inhibition is -1%.

As for `CC[C@@H]1[C@H](F)C(=O)N[C@@H]1COc1nccc2cc(C(N)=O)c(OC)cc12` [ZIMLOVISERTIB], the % of inhibition in [9] is 1.7%; in experiment [10], 2.83%; in experiment [11] it was -1.8%; in experiment [12], 5.4%.

On to `N#Cc1cccc(-c2c[nH]c3ncnc(N4CCOCC4)c23)c1`, for which the % of inhibition in [13] amounted to 20%.

In the case of `O[C@H]1CC[C@H](Nc2ncc3nc(Nc4c(F)cc(F)cc4F)n([C@H]4CCOC4)c3n2)CC1`, in experiment [14], the % of control came to 91%.
